Data from PubChem BioAssay AID1982 (Sanford-Burnham Center for Chemical Genomics, 2009).
Active and inactive are the calls of the source. No rule for the calls is given here.

Columns and labels:
Assay in all cases: kinase panel binding selectivity, selectivity assay, biochemical, KINOMEscan (AID 1982)
[1] = system: TLK2; conditions: KINOMEscan 353-kinase binding panel, qPCR, at 10 µM, stronger effect = lower value
[2] = molecular target: Serine/threonine-protein kinase pim-1 (Homo sapiens) (UniProt P11309); conditions: KINOMEscan 353-kinase binding panel, qPCR; PIM1; at 10 µM; stronger effect = lower value
[3] = system: RIOK3; conditions: KINOMEscan 353-kinase binding panel, qPCR, at 10 µM, stronger effect = lower value
[4] = system: INSRR; conditions: KINOMEscan 353-kinase binding panel, qPCR, at 10 µM, stronger effect = lower value
[5] = system: MAP3K4; conditions: KINOMEscan 353-kinase binding panel, qPCR, at 10 µM, stronger effect = lower value
[6] = molecular target: Glycogen synthase kinase-3 alpha (Homo sapiens) (UniProt P49840); conditions: KINOMEscan 353-kinase binding panel, qPCR; GSK3A; at 10 µM; stronger effect = lower value
[7] = molecular target: Aurora kinase A (Homo sapiens) (UniProt O14965); conditions: KINOMEscan 353-kinase binding panel, qPCR; AURKA; at 10 µM; stronger effect = lower value
[8] = system: MYLK; conditions: KINOMEscan 353-kinase binding panel, qPCR, at 10 µM, stronger effect = lower value
[9] = molecular target: Tyrosine-protein kinase Blk (Homo sapiens) (UniProt P51451); conditions: KINOMEscan 353-kinase binding panel, qPCR, at 10 µM, stronger effect = lower value
[10] = system: BMPR1B; conditions: KINOMEscan 353-kinase binding panel, qPCR, at 10 µM, stronger effect = lower value
[11] = molecular target: Vascular endothelial growth factor receptor 2 (Homo sapiens) (UniProt P35968); conditions: KINOMEscan 353-kinase binding panel, qPCR; VEGFR2; at 10 µM; stronger effect = lower value
[12] = system: ACVR2A; conditions: KINOMEscan 353-kinase binding panel, qPCR, at 10 µM, stronger effect = lower value
[13] = molecular target: Serine/threonine-protein kinase PLK1 (Homo sapiens) (UniProt P53350); conditions: KINOMEscan 353-kinase binding panel, qPCR, at 10 µM, stronger effect = lower value
[14] = system: PIK3CB; conditions: KINOMEscan 353-kinase binding panel, qPCR, at 10 µM, stronger effect = lower value
[15] = system: IRAK3; conditions: KINOMEscan 353-kinase binding panel, qPCR, at 10 µM, stronger effect = lower value
[16] = system: DDR2; conditions: KINOMEscan 353-kinase binding panel, qPCR, at 10 µM, stronger effect = lower value
[17] = molecular target: Dual specificity tyrosine-phosphorylation-regulated kinase 1B (Homo sapiens) (UniProt Q9Y463); conditions: KINOMEscan 353-kinase binding panel, qPCR; DYRK1B; at 10 µM; stronger effect = lower value
[18] = system: SRPK3; conditions: KINOMEscan 353-kinase binding panel, qPCR, at 10 µM, stronger effect = lower value
[19] = system: GAK; conditions: KINOMEscan 353-kinase binding panel, qPCR, at 10 µM, stronger effect = lower value
[20] = molecular target: Phosphatidylinositol 5-phosphate 4-kinase type-2 beta (Homo sapiens) (UniProt P78356); conditions: KINOMEscan 353-kinase binding panel, qPCR; PIP5K2B; at 10 µM; stronger effect = lower value
[21] = molecular target: Tyrosine-protein kinase receptor TYRO3 (Homo sapiens) (UniProt Q06418); conditions: KINOMEscan 353-kinase binding panel, qPCR, at 10 µM, stronger effect = lower value
[22] = molecular target: cGMP-dependent protein kinase 1 (Homo sapiens) (UniProt Q13976); conditions: KINOMEscan 353-kinase binding panel, qPCR; PRKG1; at 10 µM; stronger effect = lower value
[23] = molecular target: Serine/threonine-protein kinase MRCK alpha (Homo sapiens) (UniProt Q5VT25); conditions: KINOMEscan 353-kinase binding panel, qPCR; MRCKA; at 10 µM; stronger effect = lower value
[24] = system: MAP4K1; conditions: KINOMEscan 353-kinase binding panel, qPCR, at 10 µM, stronger effect = lower value
[25] = system: RIPK2; conditions: KINOMEscan 353-kinase binding panel, qPCR, at 10 µM, stronger effect = lower value
[26] = system: RPS6KA1(Kin.Dom.2); conditions: KINOMEscan 353-kinase binding panel, qPCR, at 10 µM, stronger effect = lower value
[27] = system: FGR; conditions: KINOMEscan 353-kinase binding panel, qPCR, at 10 µM, stronger effect = lower value
[28] = system: PIK3CD; conditions: KINOMEscan 353-kinase binding panel, qPCR, at 10 µM, stronger effect = lower value
[29] = system: CDK3; conditions: KINOMEscan 353-kinase binding panel, qPCR, at 10 µM, stronger effect = lower value
[30] = molecular target: Casein kinase I isoform delta (Homo sapiens) (UniProt P48730); conditions: KINOMEscan 353-kinase binding panel, qPCR; CSNK1D; at 10 µM; stronger effect = lower value
[31] = molecular target: MAP kinase-interacting serine/threonine-protein kinase 2 (Homo sapiens) (UniProt Q9HBH9); conditions: KINOMEscan 353-kinase binding panel, qPCR; MKNK2; at 10 µM; stronger effect = lower value
[32] = molecular target: STE20-like serine/threonine-protein kinase (Homo sapiens) (UniProt Q9H2G2); conditions: KINOMEscan 353-kinase binding panel, qPCR; SLK; at 10 µM; stronger effect = lower value
[33] = system: HIPK1; conditions: KINOMEscan 353-kinase binding panel, qPCR, at 10 µM, stronger effect = lower value
[34] = molecular target: Serine/threonine-protein kinase MARK2 (Homo sapiens) (UniProt Q7KZI7); conditions: KINOMEscan 353-kinase binding panel, qPCR, at 10 µM, stronger effect = lower value
[35] = system: PKAC-beta; conditions: KINOMEscan 353-kinase binding panel, qPCR, at 10 µM, stronger effect = lower value
[36] = molecular target: Insulin-like growth factor 1 receptor (Homo sapiens) (UniProt P08069); conditions: KINOMEscan 353-kinase binding panel, qPCR; IGF1R; at 10 µM; stronger effect = lower value

Measured: percent of control binding

MAP kinase-interacting serine/threonine-protein kinase 2 (Homo sapiens), sequence (Q9HBH9 whole entry, looked up): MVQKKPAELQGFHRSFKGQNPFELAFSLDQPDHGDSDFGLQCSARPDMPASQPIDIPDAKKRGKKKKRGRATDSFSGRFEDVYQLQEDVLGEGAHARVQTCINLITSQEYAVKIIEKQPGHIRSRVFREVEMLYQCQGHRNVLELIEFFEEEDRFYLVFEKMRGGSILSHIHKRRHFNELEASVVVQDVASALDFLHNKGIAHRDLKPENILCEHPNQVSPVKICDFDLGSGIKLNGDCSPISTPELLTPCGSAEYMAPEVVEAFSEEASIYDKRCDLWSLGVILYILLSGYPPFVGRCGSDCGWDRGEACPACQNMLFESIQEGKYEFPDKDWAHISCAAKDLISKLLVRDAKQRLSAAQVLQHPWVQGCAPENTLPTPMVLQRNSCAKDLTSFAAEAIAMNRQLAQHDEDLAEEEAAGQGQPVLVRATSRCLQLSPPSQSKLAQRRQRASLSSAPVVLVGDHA
Aurora kinase A (Homo sapiens), sequence (O14965 whole entry, looked up): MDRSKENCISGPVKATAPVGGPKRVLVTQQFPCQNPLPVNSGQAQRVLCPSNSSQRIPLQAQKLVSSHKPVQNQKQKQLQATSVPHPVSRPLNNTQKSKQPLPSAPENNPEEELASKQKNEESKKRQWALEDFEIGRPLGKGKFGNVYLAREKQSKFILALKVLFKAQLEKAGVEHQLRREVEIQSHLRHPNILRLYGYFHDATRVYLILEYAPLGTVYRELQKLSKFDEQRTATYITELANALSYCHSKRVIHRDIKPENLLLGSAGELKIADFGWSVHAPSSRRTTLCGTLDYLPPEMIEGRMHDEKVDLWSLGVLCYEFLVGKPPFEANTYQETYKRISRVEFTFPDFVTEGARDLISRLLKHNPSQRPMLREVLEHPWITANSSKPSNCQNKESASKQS
Tyrosine-protein kinase Blk (Homo sapiens), sequence (P51451 whole entry, looked up): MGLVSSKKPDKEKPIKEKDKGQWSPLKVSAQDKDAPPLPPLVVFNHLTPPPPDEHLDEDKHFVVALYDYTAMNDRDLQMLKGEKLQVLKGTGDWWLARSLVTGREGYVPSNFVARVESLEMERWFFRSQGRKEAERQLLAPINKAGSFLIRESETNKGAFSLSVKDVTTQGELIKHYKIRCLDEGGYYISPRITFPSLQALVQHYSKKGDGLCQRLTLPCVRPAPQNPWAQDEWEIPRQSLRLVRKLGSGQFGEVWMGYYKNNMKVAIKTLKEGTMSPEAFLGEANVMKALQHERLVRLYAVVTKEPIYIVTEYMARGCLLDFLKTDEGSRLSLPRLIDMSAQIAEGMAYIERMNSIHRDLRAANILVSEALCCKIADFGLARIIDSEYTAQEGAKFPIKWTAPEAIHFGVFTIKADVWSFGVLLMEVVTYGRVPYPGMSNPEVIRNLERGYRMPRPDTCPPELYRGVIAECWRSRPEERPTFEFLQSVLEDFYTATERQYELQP
Glycogen synthase kinase-3 alpha (Homo sapiens), sequence (P49840 whole entry, looked up): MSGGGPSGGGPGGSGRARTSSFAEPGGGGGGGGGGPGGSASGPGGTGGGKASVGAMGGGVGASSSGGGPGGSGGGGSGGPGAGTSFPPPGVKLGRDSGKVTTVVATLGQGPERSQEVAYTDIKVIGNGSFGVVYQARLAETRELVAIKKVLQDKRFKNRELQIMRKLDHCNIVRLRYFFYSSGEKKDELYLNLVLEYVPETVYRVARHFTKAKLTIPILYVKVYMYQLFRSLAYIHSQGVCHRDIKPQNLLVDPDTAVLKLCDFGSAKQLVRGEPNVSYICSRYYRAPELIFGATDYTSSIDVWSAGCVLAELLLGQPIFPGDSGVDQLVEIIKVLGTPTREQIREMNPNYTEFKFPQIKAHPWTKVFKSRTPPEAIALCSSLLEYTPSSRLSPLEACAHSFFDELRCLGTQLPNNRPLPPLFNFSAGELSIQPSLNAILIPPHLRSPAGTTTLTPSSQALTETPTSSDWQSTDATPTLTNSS
Phosphatidylinositol 5-phosphate 4-kinase type-2 beta (Homo sapiens), sequence (P78356 whole entry, looked up): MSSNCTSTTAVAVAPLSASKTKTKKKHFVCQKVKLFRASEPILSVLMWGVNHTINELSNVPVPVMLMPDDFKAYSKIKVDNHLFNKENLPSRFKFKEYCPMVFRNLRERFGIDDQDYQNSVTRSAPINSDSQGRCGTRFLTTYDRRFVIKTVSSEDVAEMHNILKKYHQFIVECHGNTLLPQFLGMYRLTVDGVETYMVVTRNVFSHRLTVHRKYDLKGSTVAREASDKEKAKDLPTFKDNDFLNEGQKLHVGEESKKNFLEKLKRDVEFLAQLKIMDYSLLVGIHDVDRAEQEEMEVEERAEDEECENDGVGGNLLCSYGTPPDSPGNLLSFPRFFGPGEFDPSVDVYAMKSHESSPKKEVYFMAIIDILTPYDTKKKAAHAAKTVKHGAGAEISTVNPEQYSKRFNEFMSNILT
Serine/threonine-protein kinase MRCK alpha (Homo sapiens), sequence (Q5VT25 whole entry, looked up): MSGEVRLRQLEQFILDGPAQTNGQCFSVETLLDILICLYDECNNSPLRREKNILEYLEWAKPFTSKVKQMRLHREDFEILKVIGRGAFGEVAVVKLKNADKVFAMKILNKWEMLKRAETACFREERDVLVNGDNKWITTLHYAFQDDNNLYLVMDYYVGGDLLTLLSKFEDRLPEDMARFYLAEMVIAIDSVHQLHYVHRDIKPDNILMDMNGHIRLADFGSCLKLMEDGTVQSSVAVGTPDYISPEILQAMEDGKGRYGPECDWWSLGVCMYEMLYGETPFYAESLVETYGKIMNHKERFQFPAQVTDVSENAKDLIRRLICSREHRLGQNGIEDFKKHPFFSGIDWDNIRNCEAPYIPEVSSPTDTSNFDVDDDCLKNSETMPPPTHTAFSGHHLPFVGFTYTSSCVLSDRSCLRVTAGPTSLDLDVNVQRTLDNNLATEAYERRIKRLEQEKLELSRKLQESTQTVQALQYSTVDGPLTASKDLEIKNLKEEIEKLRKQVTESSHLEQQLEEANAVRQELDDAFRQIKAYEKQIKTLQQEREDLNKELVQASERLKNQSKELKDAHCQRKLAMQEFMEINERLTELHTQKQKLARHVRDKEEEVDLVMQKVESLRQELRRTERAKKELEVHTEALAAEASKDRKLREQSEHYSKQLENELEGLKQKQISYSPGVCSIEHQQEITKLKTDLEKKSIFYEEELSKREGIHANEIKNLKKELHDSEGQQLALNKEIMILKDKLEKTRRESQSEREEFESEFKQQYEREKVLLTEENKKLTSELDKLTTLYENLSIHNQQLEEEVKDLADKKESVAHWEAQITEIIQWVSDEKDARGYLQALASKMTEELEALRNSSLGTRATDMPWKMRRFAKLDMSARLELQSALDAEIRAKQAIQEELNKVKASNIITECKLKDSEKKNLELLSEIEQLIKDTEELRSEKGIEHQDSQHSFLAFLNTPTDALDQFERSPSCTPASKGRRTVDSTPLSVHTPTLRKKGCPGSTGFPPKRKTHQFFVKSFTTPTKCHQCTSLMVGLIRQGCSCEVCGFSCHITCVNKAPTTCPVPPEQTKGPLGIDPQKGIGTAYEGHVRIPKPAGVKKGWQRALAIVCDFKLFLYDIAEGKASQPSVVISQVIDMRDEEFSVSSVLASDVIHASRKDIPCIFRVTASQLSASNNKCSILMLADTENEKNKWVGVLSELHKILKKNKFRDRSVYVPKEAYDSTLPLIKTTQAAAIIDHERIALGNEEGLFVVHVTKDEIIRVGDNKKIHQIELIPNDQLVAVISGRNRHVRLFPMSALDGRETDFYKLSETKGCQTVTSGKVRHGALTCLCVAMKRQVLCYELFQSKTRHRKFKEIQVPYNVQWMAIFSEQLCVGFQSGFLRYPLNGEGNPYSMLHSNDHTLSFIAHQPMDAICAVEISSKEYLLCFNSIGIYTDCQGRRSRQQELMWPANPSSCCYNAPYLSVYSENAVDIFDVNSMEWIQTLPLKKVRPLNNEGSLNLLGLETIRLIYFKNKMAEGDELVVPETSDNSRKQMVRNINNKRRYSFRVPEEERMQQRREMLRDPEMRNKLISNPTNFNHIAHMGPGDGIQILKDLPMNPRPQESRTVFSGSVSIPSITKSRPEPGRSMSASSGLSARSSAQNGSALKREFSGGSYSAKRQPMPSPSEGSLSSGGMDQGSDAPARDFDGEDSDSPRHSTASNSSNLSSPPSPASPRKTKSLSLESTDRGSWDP
Serine/threonine-protein kinase MARK2 (Homo sapiens), sequence (Q7KZI7 whole entry, looked up): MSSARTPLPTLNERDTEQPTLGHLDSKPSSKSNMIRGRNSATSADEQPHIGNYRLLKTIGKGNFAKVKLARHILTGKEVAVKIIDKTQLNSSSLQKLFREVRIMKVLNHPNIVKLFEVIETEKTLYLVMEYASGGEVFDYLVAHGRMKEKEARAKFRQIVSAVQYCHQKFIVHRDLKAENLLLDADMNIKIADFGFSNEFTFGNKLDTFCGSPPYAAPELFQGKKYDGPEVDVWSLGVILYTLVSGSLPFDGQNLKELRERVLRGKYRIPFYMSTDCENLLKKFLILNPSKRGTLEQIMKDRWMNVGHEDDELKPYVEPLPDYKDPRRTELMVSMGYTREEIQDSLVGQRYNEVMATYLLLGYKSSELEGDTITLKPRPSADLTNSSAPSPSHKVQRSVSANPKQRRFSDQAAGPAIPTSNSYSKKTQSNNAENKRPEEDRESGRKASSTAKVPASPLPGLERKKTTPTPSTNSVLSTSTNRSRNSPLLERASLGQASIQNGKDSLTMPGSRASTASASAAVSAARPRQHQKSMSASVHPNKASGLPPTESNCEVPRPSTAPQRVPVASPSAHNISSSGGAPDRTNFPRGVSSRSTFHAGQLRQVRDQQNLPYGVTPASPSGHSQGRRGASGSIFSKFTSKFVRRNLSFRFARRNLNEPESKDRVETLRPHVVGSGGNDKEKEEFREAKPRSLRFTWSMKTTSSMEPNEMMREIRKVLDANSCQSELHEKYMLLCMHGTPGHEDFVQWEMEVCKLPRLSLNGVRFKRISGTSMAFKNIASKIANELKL

Cc1cc2nc(NCCCO)n(CC(=O)c3cc(C(C)(C)C)c(O)c(C(C)(C)C)c3)c2cc1C
inactive: [1] 100% | [2] 100% | [3] 100% | [4] 100% | [5] 90% | [6] 99% | [7] 96% | [8] 80% | [9] 99% | [10] 100% | [11] 88% | [12] 88% | [13] 67% | [14] 79% | [15] 100% | [16] 65% | [17] 91% | [18] 87% | [19] 90% | [20] 99% | [21] 100% | [22] 100% | [23] 90% | [24] 100% | [25] 83% | [26] 93% | [27] 100% | [28] 65% | [29] 82% | [30] 99% | [31] 81% | [32] 100% | [33] 100% | [34] 100% | [35] 95% | [36] 54%
